Experiments:
[1] = system: HUT cancer cell line; assay: Cell inhibition assay (SRB cell viability), HUT; type: cell-based; conditions: HUT cells, 72 h, IC50 range
Protocol: (§1) The corresponding cancer cell lines (Hela, U937 and HUT) growing in log phase were harvested and seeded at 1000 cells/well (200 ul final volume) into 96-well tissue culture plates. Following 24 h of cell growth cells were treated with compounds (final concentration of 20 uM). Plates were then re-incubated for a further 72 h before a sulphorhodamine B (SRB) cell viability assay was conducted according to Skehan 1990 J Natl Canc Inst 82, 1107-1112.
(§2) Data were expressed as a percentage inhibition of the control, measured in the absence of inhibitor, as follows:— % inhibition=100−((S^i/S^o)×100) where S^i is the signal in the presence of inhibitor and S^o is the signal in the presence of DMSO. IC50 values were determined by non-linear regression analysis, after fitting the results of eight data points to the equation for sigmoidal dose response with variable slope (% activity against log concentration of compound), using Graphpad Prism software. […] NT=Not tested

[2] = target: T1, histone deacetylase activity (HeLa nuclear extract); assay: HDAC fluorescent activity assay (Biomol Fluor de Lys), HeLa nuclear extract; type: biochemical; conditions: Fluor de Lys substrate, IC50 range
T1 construct: Histone deacetylase activity from crude nuclear extract derived from HeLa cells was used for screening
Protocol: The ability of compounds to inhibit histone deacetylase activities was measured using the commercially available HDAC fluorescent activity assay from Biomol. In brief, the Fluor de Lys™ substrate, a lysine with an epsilon-amino acetylation, is incubated with the source of histone deacetylase activity (HeLa nuclear extract) in the presence or absence of inhibitor. Deacetylation of the substrate sensitises the substrate to Fluor de Lys™ developer, which generates a fluorophore. Thus, incubation of the substrate with a source of HDAC activity results in an increase in signal that is diminished in the presence of an HDAC inhibitor.
Data are expressed as a percentage of the control, measured in the absence of inhibitor, with background signal being subtracted from all samples, as follows:— % activity=((S^i−B)/(S^o−B))×100 where S^i is the signal in the presence of substrate, enzyme and inhibitor, S^o is the signal in the presence of substrate, enzyme and the vehicle in which the inhibitor is dissolved, and B is the background signal measured in the absence of enzyme.
IC50 values were determined by non-linear regression analysis, after fitting the results of eight data points to the equation for sigmoidal dose response with variable slope (% activity against log concentration of compound), using Graphpad Prism software.
Histone deacetylase activity from crude nuclear extract derived from HeLa cells was used for screening. The preparation, purchased from 4C (Seneffe, Belgium), was prepared from HeLa cells harvested whilst in exponential growth phase. The nuclear extract is prepared according to Dignam JD1983 Nucl. Acid. Res. 11, 1475-1489, snap frozen in liquid nitrogen and stored at −80° C. The final buffer composition was 20 mM Hepes, 100 mM KCl, 0.2 mM EDTA, 0.5 mM DTT, 0.2 mM PMSF and 20% (v/v) glycerol.

[3] = system: U937 cancer cell line; assay: Cell inhibition assay (SRB cell viability), U937; type: cell-based; conditions: 72 h, IC50 range
Protocol: as §1, §2

[4] = system: Hela cancer cell line; assay: Cell inhibition assay (SRB cell viability), Hela; type: cell-based; conditions: Hela cells, 72 h, IC50 range
Protocol: as §1, §2

[5] = Homo sapiens, U-937, U937 cells

| SMILES | IC50 [1] [nM] | IC50 [2] [nM] | IC50 [3, 5] [nM] | IC50 ([3]; U937 cells) [nM] | IC50 [4] [nM] | IC50 ([4]; Homo sapiens, HeLa) [nM] |
| --- | --- | --- | --- | --- | --- | --- |
| O=C(NO)c1cc2ccc(CNCC3CCC(CN[C@H](C(=O)OC4CCCC4)c4ccccc4)CC3)cc2s1 (stereo partly drawn) [Compound 126, (S)-[(4-{[(2-Hydroxycarbamoyl-benzo[b]thiophen-6-ylmethyl)-amino]-methyl}-cyclohexylmethyl)-amino]phenyl-acetic acid cyclopentyl ester] | > 3300 | 101 to 1000 | < 330 | – | – | – |
| COc1ccc2[nH]c3c(c2c1)CCN(C(=O)CCCCCCC(=O)NO)C3C(=O)N[C@H](C(=O)O)c1ccccc1 (stereo partly drawn) [Compound 14, (S)-{[2-(7-Hydroxycarbamoyl-heptanoyl)-6-methoxy-2,3,4,9-tetrahydro-1H-beta-carboline-1-carbonyl]-amino}-phenyl-acetic acid] | > 3300 | 101 to 1000 | – | > 3300 | > 3300 | – |
| CC(C)C[C@H](NC(=O)c1ccc(NC(=O)CCCCCCC(=O)NO)cc1)C(=O)OC1CCCC1 [Compound 98, (S)-2-[4-(7-Hydroxycarbamoyl-heptanoylamino)-benzoylamino]-4-methyl-pentanoic acid cyclopentyl ester] | 330 to 3300 | 101 to 1000 | 330 to 3300 | – | – | 330 to 3300 |
| O=C(CCCCCCC(=O)N1Cc2[nH]c3ccccc3c2C[C@@H]1C(=O)N[C@@H](Cc1ccccc1)C(=O)O)NO [Compound 6, (S)-2-{[(R)-2-(7-Hydroxycarbamoyl-heptanoyl)-2,3,4,9-tetrahydro-1H-beta-carboline-3-carbonyl]-amino}-3-phenyl-propionic acid] | > 3300 | < 100 | > 3300 | – | – | > 3300 |
| O=C(CNCc1ccc(CNCc2ccc3cc(C(=O)NO)sc3c2)cc1)OC1CCCC1 [Compound 120, (4-{[(2-Hydroxycarbamoyl-benzo[b]thiophen-6-ylmethyl)-amino]-methyl}-benzylamino)-acetic acid cyclopentyl ester] | < 330 | < 100 | < 330 | – | – | – |
| CC(C)(C)OC[C@H](NCc1ccc(NCc2ccc3cc(C(=O)NO)sc3c2)cc1)C(=O)OC1CCCC1 [Compound 134, (S)-3-tert-Butoxy-2-{4-[(2-hydroxycarbamoyl-benzo[b]thiophen-6-ylmethyl)-amino]-benzylamino}-propionic acid cyclopentyl ester] | > 3300 | 101 to 1000 | 330 to 3300 | – | – | – |

Other lines, results leading:

| IC50 [1] [nM] | IC50 [2] [nM] | IC50 [3, 5] [nM] | IC50 ([3]; U937 cells) [nM] | IC50 [4] [nM] | IC50 ([4]; Homo sapiens, HeLa) [nM] | SMILES |
| --- | --- | --- | --- | --- | --- | --- |
| 330 to 3300 | < 100 | > 3300 | – | – | > 3300 | O=C(CCCCCCC(=O)Nc1cccc(CNC(=O)N[C@@H](Cc2ccccc2)C(=O)OC2CCCC2)c1)NO [Compound 81, (S)-2-{3-[3-(7-Hydroxycarbamoyl-heptanoylamino)-benzyl]-ureido}-3-phenyl-propionic acid cyclopentyl ester] |
| 330 to 3300 | < 100 | < 330 | – | – | 330 to 3300 | O=C(CCCCCCC(=O)Nc1cccc(CN[C@H](C(=O)OC2CCCC2)c2ccccc2)c1)NO [Compound 36, (S)-[3-(7-Hydroxycarbamoyl-heptanoylamino)-benzylamino]-phenyl-acetic acid cyclopentyl ester] |
| 330 to 3300 | 101 to 1000 | 330 to 3300 | – | – | – | O=C(CCCCCCC(=O)Nc1cccc(COC(=O)N[C@@H](Cc2ccccc2)C(=O)OC2CCCC2)c1)NO [Compound 94, (S)-2-[3-(7-Hydroxycarbamoyl-heptanoylamino)-benzyloxycarbonylamino]-3-phenyl-propionic acid cyclopentyl ester] |
| > 3300 | < 100 | > 3300 | – | – | – | O=C(CCCCCCC(=O)Nc1cccc(CNC(=O)N[C@H](C(=O)OC2CCCC2)c2ccccc2)c1)NO [Compound 79, (S)-{3-[3-(7-Hydroxycarbamoyl-heptanoylamino)-benzyl]-ureido}-phenyl-acetic acid cyclopentyl ester] |
| 330 to 3300 | 101 to 1000 | < 330 | – | – | – | CC(C)C[C@H](NCc1cccc(NC(=O)CCCCCCC(=O)NO)c1)C(=O)OC1CCCC1 [Compound 39, (S)-2-[3-(7-Hydroxycarbamoyl-heptanoylamino)-benzylamino]-4-methyl-pentanoic acid cyclopentyl ester] |

From US9133104B2 (Chroma Therapeutics Ltd., priority 2005, dated 2015)
